In ChEMBL document CHEMBL1143099, “Synthesis and SAR of potent and orally bioavailable tert-butylpyrrolidine archetype derived melanocortin subtype-4 receptor modulators” (Bioorg Med Chem Lett, 2008):

Columns and labels:
Melanocortin receptor 4 [1] = target: T1, Melanocortin receptor 4 (Homo sapiens, UniProt P32245); assay: Agonist activity at human MC4R expressed in CHO cells assessed as cAMP release relative to alpha-MSH; format: functional, cell-based
Melanocortin receptor 4 [2] = target: T1, Melanocortin receptor 4; assay: Agonist activity at human MC4R expressed in CHO cells assessed as cAMP release; format: functional, cell-based
Melanocortin receptor 4 [3] = target: T1, Melanocortin receptor 4; assay: Displacement of [125I]NDP-alpha-MSH from human MC4R expressed in CHO cells; format: cell-based
[4] = Binding affinity to human MC1bR
[5] = Plasma clearance in rat at 4 mg/kg, po; format: ADME, organism-based; design: dose 4 mg/kg, route oral
[6] = target: Melanocortin receptor 4 (Rattus norvegicus) (UniProt P70596); assay: Agonist activity at rat MC4R expressed in CHO cells assessed as cAMP release at 10 uM relative to alpha-MSH; format: functional, cell-based
Homo sapiens [7] = species: Homo sapiens; assay: Selectivity for human MC4R over human MC3R
Melanocortin receptor 4 [8] = target: T2, Melanocortin receptor 4 (Rattus norvegicus, UniProt P70596); assay: Binding affinity to rat MC4R
[9] = Oral bioavailability in Sprague-Dawley rat at 4 mg/kg; format: ADME, organism-based; settings: in vivo
Melanocortin receptor 3 [10] = target: T3, Melanocortin receptor 3 (Homo sapiens, UniProt P41968); assay: Binding affinity to human MC3R
Homo sapiens [11] = species: Homo sapiens; assay: Selectivity for human MC4R over human MC1bR
Melanocortin receptor 5 [12] = target: T4, Melanocortin receptor 5 (Homo sapiens, UniProt P33032); assay: Agonist activity at human MC5R expressed in CHO cells assesses as cAMP release; format: functional, cell-based
Melanocortin receptor 5 [13] = target: T4, Melanocortin receptor 5; assay: Binding affinity to human MC5R
Melanocortin receptor 3 [14] = target: T3, Melanocortin receptor 3; assay: Agonist activity at human MC3R expressed in CHO cells assessed as cAMP release at 10 uM relative to alpha-MSH; format: functional, cell-based
Melanocortin receptor 5 [15] = target: T4, Melanocortin receptor 5; assay: Agonist activity at human MC5R expressed in CHO cells assessed as cAMP release at 10 uM relative to alpha-MSH; format: functional, cell-based
[16] = Agonist activity at human MC1bR expressed in CHO cells assessed as cAMP release at 10 uM relative to alpha-MSH; format: functional
Melanocortin receptor 4 [17] = target: T1, Melanocortin receptor 4; assay: Agonist activity at human MC4R expressed in CHO cells assessed as cAMP release at 10 uM relative to alpha-MSH; format: functional, cell-based
[18] = Agonist activity at human MC1bR expressed in CHO cells assessed as cAMP release; format: functional, cell-based
Melanocortin receptor 4 [19] = target: T2, Melanocortin receptor 4; assay: Agonist activity at rat MC4R expressed in CHO cells assessed as cAMP release; format: functional, cell-based
Melanocortin receptor 3 [20] = target: T3, Melanocortin receptor 3; assay: Agonist activity at human MC3R expressed in CHO cells assessed as cAMP release; format: functional, cell-based

T2 sequence (P70596 whole entry): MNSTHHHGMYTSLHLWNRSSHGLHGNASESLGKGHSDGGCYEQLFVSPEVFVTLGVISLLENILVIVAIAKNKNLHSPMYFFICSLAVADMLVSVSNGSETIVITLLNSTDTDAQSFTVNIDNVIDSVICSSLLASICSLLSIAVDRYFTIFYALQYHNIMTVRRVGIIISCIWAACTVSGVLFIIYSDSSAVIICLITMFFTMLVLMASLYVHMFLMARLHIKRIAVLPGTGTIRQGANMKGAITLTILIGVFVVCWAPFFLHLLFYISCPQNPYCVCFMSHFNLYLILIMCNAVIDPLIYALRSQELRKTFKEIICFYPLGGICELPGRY
Melanocortin receptor 4 (Rattus norvegicus), sequence (P70596 whole entry): as above
T3 sequence (P41968 whole entry): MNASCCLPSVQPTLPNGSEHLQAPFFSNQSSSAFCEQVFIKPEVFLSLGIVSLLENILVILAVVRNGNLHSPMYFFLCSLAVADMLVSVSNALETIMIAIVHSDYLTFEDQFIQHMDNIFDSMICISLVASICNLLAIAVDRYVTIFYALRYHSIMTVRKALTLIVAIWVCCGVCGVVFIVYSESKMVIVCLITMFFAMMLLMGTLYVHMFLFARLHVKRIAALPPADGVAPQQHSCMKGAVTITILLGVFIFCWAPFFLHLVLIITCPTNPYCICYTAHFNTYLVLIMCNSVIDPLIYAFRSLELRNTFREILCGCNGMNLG
T1 sequence (P32245 whole entry): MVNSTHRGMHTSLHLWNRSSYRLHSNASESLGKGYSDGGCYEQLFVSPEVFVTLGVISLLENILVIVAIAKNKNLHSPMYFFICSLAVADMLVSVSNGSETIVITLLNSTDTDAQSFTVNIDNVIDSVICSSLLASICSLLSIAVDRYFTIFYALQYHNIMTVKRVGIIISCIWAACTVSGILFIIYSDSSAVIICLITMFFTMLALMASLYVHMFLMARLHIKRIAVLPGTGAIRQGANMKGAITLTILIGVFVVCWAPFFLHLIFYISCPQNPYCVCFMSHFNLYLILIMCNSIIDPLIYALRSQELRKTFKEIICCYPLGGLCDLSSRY
T4 sequence (P33032 whole entry): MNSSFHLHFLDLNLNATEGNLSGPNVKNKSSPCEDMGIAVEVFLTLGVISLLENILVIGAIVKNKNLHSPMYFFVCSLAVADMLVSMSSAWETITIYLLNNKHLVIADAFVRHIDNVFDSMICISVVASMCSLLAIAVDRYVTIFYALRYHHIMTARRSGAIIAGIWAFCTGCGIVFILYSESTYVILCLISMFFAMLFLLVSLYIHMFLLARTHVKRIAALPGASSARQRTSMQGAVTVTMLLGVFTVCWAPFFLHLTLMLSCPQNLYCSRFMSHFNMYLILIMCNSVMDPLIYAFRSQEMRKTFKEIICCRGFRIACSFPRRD

| SMILES | %max (Melanocortin receptor 4 [1]) [%] | EC50 (Melanocortin receptor 4 [2]) [nM] | IC50 (Melanocortin receptor 4 [3]) [nM] | IC50 [4] [nM] | CL/F [5] [mL/min/kg] | bioavailability [9] [%] | IC50 (Melanocortin receptor 3 [10]) [nM] | EC50 (Melanocortin receptor 5 [12]) [nM] | IC50 (Melanocortin receptor 5 [13]) [nM] | Activity (Melanocortin receptor 3 [14]) [%] | Activity (Melanocortin receptor 5 [15]) [%] | Activity [16] [%] | other results |
| --- | --- | --- | --- | --- | --- | --- | --- | --- | --- | --- | --- | --- | --- |
| CC[C@H](NC(C)=O)c1cc(Cl)ccc1C1CCN(C(=O)[C@H]2CN(C(C)(C)C)C[C@@H]2c2ccc(Cl)cc2Cl)CC1 |  |  | 3.3 | 20000 | 11.4 | 30.3 | 4290 | 1600 | 245 | 5 | 10 | 3 | Activity [6]: 6%; Ratio IC50 (Homo sapiens [7]): > 1000; IC50 (Melanocortin receptor 4 [8]): 0.5 nM; Ratio IC50 (Homo sapiens [11]): > 6000; Activity (Melanocortin receptor 4 [17]): 1% |
| CC[C@H](NC(C)=O)c1cc(Cl)ccc1C1CCN(C(=O)[C@H]2CN(C(C)(C)C)C[C@@H]2c2ccc(C(F)(F)F)cc2F)CC1 |  |  | 9.8 |  |  |  |  |  |  |  |  |  | Activity (Melanocortin receptor 4 [17]): 5% |
| CC[C@H](NC(C)=O)c1cc(Cl)ccc1C1CCN(C(=O)[C@@H]2CN(C(C)(C)C)C[C@H]2c2ccc(F)cc2Cl)CC1 | 84 | 215 | 216 |  |  |  |  |  |  |  |  |  |  |
| CC[C@H](NC(C)=O)c1cc(Cl)ccc1C1CCN(C(=O)[C@@H]2CN(C(C)(C)C)C[C@H]2c2ccc(Cl)cc2Cl)CC1 | 48 | 156 | 17.9 |  |  |  |  |  |  |  |  |  |  |
| CC[C@H](NC(C)=O)c1cc(Cl)ccc1C1CCN(C(=O)[C@H]2CN(C(C)(C)C)C[C@@H]2c2ccc3ccccc3c2)CC1 | 57 | 1920 | 528 |  |  |  |  |  |  |  |  |  |  |
| CC[C@H](NC(C)=O)c1cc(Cl)ccc1C1CCN(C(=O)[C@@H]2CN(C(C)(C)C)C[C@H]2c2ccc(OC)cc2F)CC1 | 100 | 4.6 | 11.2 | 312 | 66.4 | 3.8 | 2960 | 167 | 205 | 91 | 101 |  | EC50 (Melanocortin receptor 3 [20]): 157 nM |
| CC[C@H](NC(C)=O)c1cc(Cl)ccc1C1CCN(C(=O)[C@H]2CN(C(C)(C)C)C[C@@H]2c2ccc(C(F)(F)F)cc2)CC1 |  |  | 7.8 | 16400 | 5.6 | 28 | 3780 |  | 450 | 8 | 11 | 5 | Activity [6]: 15%; IC50 (Melanocortin receptor 4 [8]): 1 nM; Activity (Melanocortin receptor 4 [17]): 1% |
| CC[C@H](NC(C)=O)c1cc(Cl)ccc1C1CCN(C(=O)[C@@H]2CN(C(C)(C)C)C[C@H]2c2ccc3ccccc3c2)CC1 | 47 | 120 | 76.2 | 6590 | 37.6 | 15 | 12200 | 1230 | 675 | 16 | 35 | 10 |  |
| CC[C@H](NC(C)=O)c1cc(Cl)ccc1C1CCN(C(=O)[C@H]2CN(C(C)(C)C)C[C@@H]2c2ccc(OC)cc2F)CC1 | 34 | 245 | 37.2 |  |  |  |  |  |  |  |  |  |  |
| CC[C@H](NC(C)=O)c1cc(Cl)ccc1C1CCN(C(=O)[C@H]2CN(C(C)(C)C)C[C@@H]2c2ccc(F)cc2Cl)CC1 |  |  | 82.2 |  |  |  |  |  |  |  |  |  | Activity (Melanocortin receptor 4 [17]): 10% |
| CC[C@H](NC(C)=O)c1cc(Cl)ccc1C1CCN(C(=O)[C@@H]2CN(C(C)(C)C)C[C@H]2c2ccc(C(F)(F)F)cc2)CC1 | 90 | 67.2 | 28.1 |  |  |  |  |  |  |  |  |  |  |

Further lines, with some results ahead:

| %max (Melanocortin receptor 4 [1]) [%] | EC50 (Melanocortin receptor 4 [2]) [nM] | IC50 (Melanocortin receptor 4 [3]) [nM] | IC50 [4] [nM] | CL/F [5] [mL/min/kg] | bioavailability [9] [%] | IC50 (Melanocortin receptor 3 [10]) [nM] | EC50 (Melanocortin receptor 5 [12]) [nM] | IC50 (Melanocortin receptor 5 [13]) [nM] | Activity (Melanocortin receptor 3 [14]) [%] | Activity (Melanocortin receptor 5 [15]) [%] | SMILES | Activity [16] [%] | other results |
| --- | --- | --- | --- | --- | --- | --- | --- | --- | --- | --- | --- | --- | --- |
| 83 | 565 | 640 |  |  |  |  |  |  |  |  | CC[C@H](NC(C)=O)c1cc(Cl)ccc1C1CCN(C(=O)[C@H]2CN(C(C)(C)C)C[C@@H]2c2ccc(F)cc2F)CC1 |  |  |
| 33 | 13.4 | 4.1 | 174000 | 9.12 | 34.3 | 2950 | 455 | 280 | 38 | 30 | CC[C@H](NC(C)=O)c1cc(Cl)ccc1C1CCN(C(=O)[C@H]2CN(C(C)(C)C)C[C@@H]2c2ccc(Br)cc2F)CC1 | 33 | Activity [6]: 44%; EC50 [18]: 1060 nM; IC50 (Melanocortin receptor 4 [8]): 1.5 nM; EC50 (Melanocortin receptor 4 [19]): 10.3 nM; EC50 (Melanocortin receptor 3 [20]): 917 nM |
| 108 | 17.9 | 70 |  |  |  |  |  |  |  |  | CC[C@H](NC(C)=O)c1cc(Cl)ccc1C1CCN(C(=O)[C@@H]2CN(C(C)(C)C)C[C@H]2c2ccc(F)cc2F)CC1 |  |  |
| 45 | 111 | 13.2 |  |  |  |  |  |  |  |  | CC[C@H](NC(C)=O)c1cc(Cl)ccc1C1CCN(C(=O)[C@H]2CN(C(C)(C)C)C[C@@H]2c2ccc(Cl)cc2F)CC1 |  |  |
| 100 | 2.1 | 4 | 695 | 7.3 | 24.7 | 1050 | 102 | 65.3 | 88 | 88 | CC[C@H](NC(C)=O)c1cc(Cl)ccc1C1CCN(C(=O)[C@@H]2CN(C(C)(C)C)C[C@H]2c2ccc(Br)cc2F)CC1 | 57 | Activity [6]: 94%; EC50 [18]: 274 nM; IC50 (Melanocortin receptor 4 [8]): 1.7 nM; EC50 (Melanocortin receptor 4 [19]): 0.5 nM; EC50 (Melanocortin receptor 3 [20]): 97.4 nM |
| 93 | 130 | 128 |  |  |  |  |  |  |  |  | CC[C@H](NC(C)=O)c1cc(Cl)ccc1C1CCN(C(=O)[C@@H]2CN(C(C)(C)C)C[C@H]2c2cc(F)c(F)cc2F)CC1 |  |  |
| 50 | 3700 | 101 |  |  |  |  |  |  |  |  | CC[C@H](NC(C)=O)c1cc(Cl)ccc1C1CCN(C(=O)[C@H]2CN(C(C)(C)C)C[C@@H]2c2cc(F)c(F)cc2F)CC1 |  |  |
| 99 | 88.8 | 22.7 |  |  |  |  |  |  |  |  | CC[C@H](NC(C)=O)c1cc(Cl)ccc1C1CCN(C(=O)[C@@H]2CN(C(C)(C)C)C[C@H]2c2ccc(C(F)(F)F)cc2F)CC1 |  |  |
| 97 | 2.8 | 6.2 | 1340 | 11.4 | 24.3 | 1490 | 372 | 129 | 92 | 98 | CC[C@H](NC(C)=O)c1cc(Cl)ccc1C1CCN(C(=O)[C@@H]2CN(C(C)(C)C)C[C@H]2c2ccc(Cl)cc2F)CC1 | 57 | Activity [6]: 106%; EC50 [18]: 905 nM; EC50 (Melanocortin receptor 4 [19]): 0.9 nM; EC50 (Melanocortin receptor 3 [20]): 250 nM |
